The IC50 is the point on the concentration scale where inhibition reaches its midpoint. A lower IC50 goes with greater potency.

Common to all, as to assay: biochemical
Common to all, as to assay type: binding

Test [1] concerns the target HLA A*0201 (Homo sapiens, UniProt P04439, D140Y/D185E/D98H/E176V/E277Q/G131W/G231S/I119V/I121R/I166T/I218V/L300P/L318F/N151K/N90K/P208A/P217A/Q86G/Q94H/R138H/R169H/T345S).
Test [2] addresses HLA A*0202 (Homo sapiens, UniProt P04439, D140Y/D185E/D98H/E176V/E277Q/G131W/G231S/I119L/I121R/I166T/I218V/L180W/L300P/L318F/N151K/N90K/P208A/P217A/Q67R/Q86G/Q94H/R138H/R169H/T345S).
Test [3] deals with HLA A*0203 (Homo sapiens, UniProt P04439, A173T/D140Y/D185E/D98H/E277Q/G131W/G231S/I119V/I121R/I166T/I218V/L180W/L300P/L318F/N151K/N90K/P208A/P217A/Q86G/Q94H/R138H/R169H/T345S).
Test [4] concerns the target HLA A*0206 (Homo sapiens, UniProt P04439, D140Y/D185E/D98H/E176V/E277Q/F33Y/G131W/G231S/I119V/I121R/I166T/I218V/L300P/L318F/N151K/N90K/P208A/P217A/Q86G/Q94H/R138H/R169H/T345S).
In test [5] the target is HLA A*6802 (Homo sapiens, UniProt P04439, A269V/D140Y/D185E/E176V/E277Q/E87N/F33Y/G231S/I121R/I166T/I218V/L180W/L300P/L318F/N151K/P208A/P217A/Q86R/R138H/R169H/S129P/T345S/V36M).

Ends that are not written are not given here. Some results are limits rather than exact numbers.

Turning to KINAWIKGV [TV9p5], the IC50 in test [1] amounted to 536 nM; in test [2], 433 nM; in test [3], 10 nM; in test [4], 224 nM; in test [5], 36800 nM.

For `CC(C)C[C@H](NC(=O)[C@@H](N)[C@@H](C)O)C(=O)N[C@@H](CC(N)=O)C(=O)N[C@@H](C)C(=O)N[C@@H](Cc1c[nH]c2ccccc12)C(=O)N[C@H](C(=O)N[C@@H](CCCCN)C(=O)N[C@H](C(=O)N[C@H](C(=O)O)C(C)C)C(C)C)C(C)C` [TV9, reference compound], the IC50 in test [1] turned out to be 701 nM; in test [2], 179 nM; in test [3], 108 nM; in test [4], 1960 nM; in test [5], 23900 nM.

For the compound KINAWIKVV [TV9p6], the IC50 in test [1] is 5120 nM; in test [2], 2950 nM; in test [3], 56 nM; in test [4] it was 13400 nM; in test [5] it was more than 10000 nM.

As to TINAWIKGV [TV9p29], the IC50 in test [1] stood at 1060 nM; in test [2], 706 nM; in test [3] it was 15 nM; in test [4], 2250 nM; in test [5] it was 269 nM.

Consider TINAWIKVV [TV9p30], for which the IC50 was found to be 4230 nM in test [1]; 1830 nM in test [2]; 112 nM in test [3]; 12600 nM in test [4]; 6220 nM in test [5].

The record behind these values is publication PMC3086652 (European journal of immunology, 2010).
